Results on 2 compounds are retold here after patent US9408856B2, “Topical steroidal formulations” (Temple University—Of The Commonwealth System of Higher …, priority 2008, dated 2016).

The assay deals with TPA-stimulated epidermal DNA synthesis in mouse epidermis. Briefly: TPA-induced epidermal DNA synthesis in mouse epidermis, transdermal fluasterone. Format: in vivo, CD-1 mice. The following applies: for cpm/μg DNA: 20 h, single mice and group mean. Here is the method:
In dose-response experiments the anti-hyperplastic efficacy of fluasterone in TPA-treated mouse epidermis to determine bioavailability following different routes of administration was measured. Mice were treated with a single dose of fluasterone (either orally, subcutaneously, or transdermally) followed by a single application of TPA to the shaved back one hour latter. In case of transdermal administration, fluasterone is applied in a topical formulation to the shaved abdomen to allow for systemic absorption to the back of the animal. Twenty hours after TPA application, the mice are injected with 60 μCi of [3H] thymidine, sacrificed 20 minutes later, and a 2×2 cm2 of skin from the shaved back is excised and processed for the determination of the amount of [3H] thymidine incorporated per unit of epidermal DNA. (Hennings et. al., Cancer Res. 28:543-552, 1968).
Female CD-1 mice, 40-43 days old, were obtained from Charles River Laboratories, Kingston, N.Y. The mice were housed two per cage in plastic shoebox cages on Absorbdri bedding with 12 hours of alternating light and dark in the Central Animal Facility. The mice had ad libitum access to Purina 5015 chow and acidified tap water (pH S 2.6). The mice were allowed to acclimate to the facility for approximately two weeks prior to use in an experiment. […]
The mice were weighed, marked with magic marker on the tail, and shaved on the back and the abdomen one day prior to treatment. Only those mice showing no hair regrowth were used in the experiment. Fluasterone was applied to the shaved abdomen one hour before TPA was applied to the shaved back. The mice were anesthetized and on their backs prior to topical application of TPA. […]
The mice were anesthetized with Isoflurane, and then were given an intramuscular injection of 0.1 mL solution of ketamine (50 mg/kg), xylazine (10 mg/kg) and atropine (0.1 mg/kg). Approximately 10 minutes after the i.m. injection (after the mice could not turn over when placed on their backs), the mice were treated with 5 μL of a 12.5 mg/mL fluasterone/carbitol solution to give a dose of 2.5 mg/kg. The mice were anesthetized and on their backs for approximately 30 minutes after application of fluasterone/carbitol solution. One hour after the application of fluasterone/carbitol solution, 2 μg of TPA dissolved in. 0.2 mL of acetone was applied to the shaved area on the back of each mouse. […]
The mice were anesthetized with Isoflurane, and then were given an intramuscular injection of 0.1 mL solution of ketamine (50 mg/kg), xylazine (10 mg/kg) and atropine (0.1 mg/kg). Approximately 10 minutes after the i.m. injection (after the mice could not turn over when placed on their backs), the mice were treated with 2.5 μl, of a 12.5 mg/mL fluasterone/carbitol solution to give a dose of 1.25 mg/kg. The mice were anesthetized and on their backs for approximately 30 minutes after application of fluasterone/carbitol solution. One hour after the application of fluasterone/carbitol solution, 2 μg of TPA dissolved in 0.2 mL of acetone was applied to the shaved area on the back of each mouse.
The mice were anesthetized with Isoflurane, and then were given an intramuscular injection of 0.1 mL solution of ketamine (50 mg/kg), xylazine (10 mg/kg) and atropine (0.1 mg/kg). Approximately 10 minutes after the i.m. injection (after the mice could not turn over when placed on their backs), the mice were treated with 10 μL of a 12.5 mg/mL fluasterone/Cremophor EL solution to give a dose of 5 mg/kg. The mice were anesthetized and on their backs for approximately 30 minutes after application of fluasterone/Cremophor EL solution. One hour after the application of fluasterone/Cremophor EL solution, 2 μg of TPA dissolved in 0.2 mL of acetone was applied to the shaved area on the back of each mouse.
The mice were anesthetized with Isoflurane, and then were given an intramuscular injection of 0.1 mL solution of ketamine (50 mg/kg), xylazine (10 mg/kg) and atropine (0.1 mg/kg). […]

Several values for one entry are separate records, joined by “and”; a condition that tells them apart may be missing. Equal entries are not always repeated.

For `C[C@]12CCCCC1=CC[C@@H]1[C@@H]2CC[C@]2(C)C(=O)[C@H](F)C[C@@H]12` [Fluasterone, 16α-fluoro-5-androsten-17-one], the “cpm/μg DNA” value is, setting by setting: (Cremophor EL solution, 1.25 mg/kg transdermal (abdomen) 1 h before 2 μg TPA (back), 1.25 mg/kg) 507.3 cpm/μg DNA and 414.3 cpm/μg DNA and 460.1 ± 65.8 cpm/μg DNA; (Cremophor EL solution, 5 mg/kg transdermal (abdomen) 1 h before 2 μg TPA (back), 5 mg/kg) 116.7 cpm/μg DNA and 147.4 cpm/μg DNA and 132.1 ± 21.7 cpm/μg DNA; (carbitol solution, 1.9 mg/kg transdermal (abdomen) 1 h before 2 μg TPA (back), 1.9 mg/kg) 365.9 cpm/μg DNA and 227.7 cpm/μg DNA and 296.8 ± 97.7 cpm/μg DNA; (carbitol solution, 5 mg/kg transdermal (abdomen) 1 h before 2 μg TPA (back), 5 mg/kg) 533.8 cpm/μg DNA and 467.1 cpm/μg DNA and 500.5 ± 47.2 cpm/μg DNA; (ethanol:limonene:isopropyl myristate (81:15:4) solution, 1.5 mg/kg transdermal (abdomen) 1 h before 2 μg TPA (back), 1.5 mg/kg) 226.9 cpm/μg DNA and 147.5 cpm/μg DNA. For the same compound, the lowest effective dose (Tween 80:ethanol (50:50 v/v) solution, transdermal) is given as not above 2.5 mg/kg. In addition, the “transdermal potency compared with s.c. administration in abolishing TPA-stimulated hyperplasia” value (mice) is reported as “as potent as subcutaneous injection”. Besides, under “topical solutions and suspension applied to abdomen”, the “transdermal dose that suppresses TPA-stimulated epidermal [3H]thymidine incorporation and/or epidermal DNA content” value is 2.5 mg/kg.
For the compound `CCCCCCCCCCCCCC(=O)O[C@@H]1[C@@H](C)[C@@]2(O)[C@@H](C=C(CO)C[C@]3(O)C(=O)C(C)=C[C@@H]23)[C@@H]2C(C)(C)[C@]12OC(C)=O` [TPA, 12-O-tetradecanoylphorbol-13-acetate, reference compound], for the setting “TPA 2 μg (back) after carbitol vehicle only”, the “cpm/μg DNA” value is 331.5 cpm/μg DNA and 353.6 cpm/μg DNA and 342.6 ± 15.6 cpm/μg DNA.
